Reference: patent US11266643B2, “Triaryl compounds for treatment of PD-L1 diseases” (CHEMOCENTRYX, INC., priority 2019, dated 2022)

The compounds below were run against human PD-L1 (Homo sapiens (Human), UniProt Q9NZQ7) (assay: Enzyme-Linked Immunosorbent Assay (ELISA), PD-1/PD-L1 binding). Conditions: plate-coated human PD-L1, biotinylated Human PD-1, absorbance at 450 nm.
Summary of the method: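 Plates coated with […] human PD-L1 overnight at 4° C, blocked, then 1:5 serial compound dilutions added with human PD-1 […] 0.31 μg/mL for 1 h at 37° C. Bound PD-1 detected with streptavidin-HRP and TMB (20 min, 37° C); absorbance read at 450 nm after H2SO4 stop.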

human PD-L1, sequence (Q9NZQ7 19-239): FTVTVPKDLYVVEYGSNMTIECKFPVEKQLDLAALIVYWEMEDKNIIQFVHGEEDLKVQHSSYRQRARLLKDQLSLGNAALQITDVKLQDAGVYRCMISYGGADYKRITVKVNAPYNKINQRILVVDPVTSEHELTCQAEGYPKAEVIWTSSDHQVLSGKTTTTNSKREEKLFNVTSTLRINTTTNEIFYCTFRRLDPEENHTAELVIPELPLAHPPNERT

SMILES	IC50
COc1cc(-c2cccc(-c3cccc(NC(=O)c4c[nH]c(=O)n(C)c4=O)c3Cl)c2Cl)cc(F)c1CN[C@@H]1CCOC[C@@H]1O [Example 2.030]	< 10 nM
COc1cc(-c2cccc(-c3cccc(NC(=O)c4c[nH]c(=O)n(C)c4=O)c3C)c2Cl)cc(F)c1CNCC1(C(N)=O)CC1 [Example 2.031]	< 10 nM
COc1cc(-c2cccc(-c3cccc(NC(=O)c4c[nH]c(=O)n(C)c4=O)c3C)c2Cl)cc(F)c1CN[C@H]1CCC(=O)NC1 [Example 2.032]	< 10 nM
COc1cc(-c2cccc(-c3cccc(NC(=O)c4c[nH]c(=O)n(C)c4=O)c3C)c2Cl)cc(F)c1CN[C@@H]1CNC(=O)C1 [Example 2.033]	< 10 nM
COc1cc(-c2cccc(-c3cccc(NC(=O)c4c[nH]c(=O)n(C)c4=O)c3C)c2Cl)cc(F)c1CN[C@H]1CCOC[C@H]1O [Example 2.034]	< 10 nM
COc1cc(-c2cccc(-c3cccc(NC(=O)c4c[nH]c(=O)n(C)c4=O)c3C)c2Cl)cc(F)c1CN[C@@H]1CCOC[C@@H]1O [Example 2.035]	< 10 nM
CCOc1cc(-c2cccc(-c3cccc(NC(=O)c4cn(C)c(=O)n(C)c4=O)c3Cl)c2Cl)cc(F)c1CN[C@H]1CCC(=O)NC1 [Example 2.036]	< 10 nM
CCOc1cc(-c2cccc(-c3cccc(NC(=O)c4cn(C)c(=O)n(C)c4=O)c3Cl)c2Cl)cc(F)c1CN[C@@H]1CCOC[C@@H]1O [Example 2.037]	< 10 nM
CCOc1cc(-c2cccc(-c3cccc(NC(=O)c4cn(C)c(=O)n(C)c4=O)c3C)c2Cl)cc(F)c1CN[C@H]1CCC(=O)NC1 [Example 2.038]	10 to 1000 nM
CCOc1cc(-c2cccc(-c3cccc(NC(=O)c4cn(C)c(=O)n(C)c4=O)c3C)c2Cl)cc(F)c1CN[C@@H]1CCOC[C@@H]1O [Example 2.039]	< 10 nM
COc1cc(-c2cccc(-c3cccc(NC(=O)c4cncn(C)c4=O)c3C)c2Cl)cc(F)c1CN[C@H]1CCC(=O)NC1 [Example 2.041]	< 10 nM
COc1cc(-c2cccc(-c3cccc(NC(=O)c4cncn(C)c4=O)c3C)c2Cl)cc(F)c1CN[C@@H]1CCOC[C@@H]1O [Example 2.042]	< 10 nM
COc1cc(-c2cccc(-c3cccc(NC(=O)c4cn(C)c(=O)n(C)c4=O)c3C)c2Cl)cc(F)c1CN(C)[C@@H]1CCOC1 [Example 2.043]	< 10 nM
COc1cc(-c2cccc(-c3cccc(NC(=O)c4cn(C)c(=O)n(C)c4=O)c3C)c2Cl)cc(F)c1CNCC(C)(C)O [Example 2.045]	< 10 nM
COc1cc(-c2cccc(-c3cccc(NC(=O)c4cn(C)c(=O)n(C)c4=O)c3C)c2Cl)cc(F)c1CN1CC(C(=O)O)C1 [Example 2.046]	< 10 nM
COc1cc(-c2cccc(-c3cccc(NC(=O)c4cn(C)c(=O)n(C)c4=O)c3C)c2Cl)cc(F)c1CN1CCCC[C@H]1C(=O)O [Example 2.047]	< 10 nM
CCOc1cc(-c2cccc(-c3cccc(NC(=O)c4cn(C)c(=O)n(C)c4=O)c3C)c2Cl)ccc1CN[C@@H]1CCOC[C@@H]1O [Example 2.048]	< 10 nM
COc1cc(-c2cccc(-c3cccc(NC(=O)c4cn(C)c(=O)n(C)c4=O)c3C)c2Cl)cnc1CN[C@@H]1CCOC[C@@H]1O [Example 2.049]	< 10 nM
COc1cc(-c2cccc(-c3cccc(NC(=O)c4cn(C)c(=O)n(C)c4=O)c3C)c2Cl)cc(F)c1CNC1(C)CCOCC1 [Example 2.050]	< 10 nM

SMILES	IC50
COc1cc(-c2cccc(-c3cccc(NC(=O)c4cn(C)c(=O)n(C)c4=O)c3C)c2Cl)cc(F)c1CN[C@@H]1CCC[C@@H]1O [Example 2.051]	< 10 nM
COc1cc(-c2cccc(-c3cccc(NC(=O)c4cn(C)c(=O)n(C)c4=O)c3C)c2Cl)cc(F)c1CN[C@@H]1CCC[C@H]1O [Example 2.052]	< 10 nM
COc1cc(-c2cccc(-c3cccc(NC(=O)c4cn(C)c(=O)n(C)c4=O)c3C)c2Cl)cc(F)c1CN[C@H]1CCC[C@H]1O [Example 2.053]	< 10 nM
COc1cc(-c2cccc(-c3cccc(NC(=O)c4cn(C)c(=O)n(C)c4=O)c3C)c2Cl)ccc1CN[C@@H]1CCOC[C@@H]1O [Example 2.054]	< 10 nM
COc1cc(-c2cccc(-c3cccc(NC(=O)c4cn(C)c(=O)n(C)c4=O)c3Cl)c2Cl)cc(F)c1CN(C)[C@H]1CNC(=O)C1 [Example 2.055]	10 to 1000 nM
COc1cc(-c2cccc(-c3cccc(NC(=O)c4cn(C)c(=O)n(C)c4=O)c3C)c2Cl)cc(F)c1CNCC1(O)CC1 [Example 2.056]	< 10 nM
COc1cc(-c2cccc(-c3cccc(NC(=O)c4cn(C)c(=O)n(C)c4=O)c3C)c2Cl)cc(F)c1CNC(C)(C)CO [Example 2.057]	< 10 nM
COc1cc(-c2cccc(-c3cccc(NC(=O)c4cn(C)c(=O)n(C)c4=O)c3C)c2Cl)cc(F)c1CN(C)CCO [Example 2.058]	< 10 nM
COc1cc(-c2cccc(-c3cccc(NC(=O)c4cn(C)c(=O)n(C)c4=O)c3C)c2Cl)cc(F)c1CNCC1(C(N)=O)CC1 [Example 2.059]	< 10 nM
COc1cc(-c2cccc(-c3cccc(NC(=O)c4cn(C)c(=O)n(C)c4=O)c3C)c2Cl)cc(F)c1CN[C@H]1CCC[C@@H]1O [Example 2.060]	< 10 nM
COc1cc(-c2cccc(-c3cccc(NC(=O)c4cn(C)c(=O)n(C)c4=O)c3C)c2Cl)cc(F)c1CN(C)[C@H]1CNC(=O)C1 [Example 2.061]	10 to 1000 nM
COc1cc(-c2cccc(-c3cccc(NC(=O)c4cn(C)c(=O)n(C)c4=O)c3C)c2Cl)cc(F)c1CN(C)[C@@H]1CCOC[C@@H]1O [Example 2.062]	< 10 nM
COc1cc(-c2cccc(-c3cccc(NC(=O)c4cn(C)c(=O)n(C)c4=O)c3Cl)c2Cl)cc(F)c1CNC(C)C [Example 2.063]	< 10 nM
COc1cc(-c2cccc(-c3cccc(NC(=O)c4cn(C)c(=O)n(C)c4=O)c3C)c2Cl)cc(F)c1CNC(C)C [Example 2.064]	< 10 nM
COc1cc(-c2cccc(-c3cccc(NC(=O)c4cn(C)c(=O)n(C)c4=O)c3Cl)c2Cl)cc(F)c1CN[C@@H]1CCOC1 [Example 2.065]	< 10 nM
COc1cc(-c2cccc(-c3cccc(NC(=O)c4cn(C)c(=O)n(C)c4=O)c3Cl)c2Cl)cc(F)c1CN[C@H]1CCOC1 [Example 2.066]	< 10 nM
COc1cc(-c2cccc(-c3cccc(NC(=O)c4cn(C)c(=O)n(C)c4=O)c3C)c2Cl)cc(F)c1CN[C@@H]1CCCOC1 [Example 2.067]	< 10 nM
COc1cc(-c2cccc(-c3cccc(NC(=O)c4cn(C)c(=O)n(C)c4=O)c3Cl)c2Cl)cc(F)c1CN(C)[C@@H]1CNC(=O)C1 [Example 2.068]	< 10 nM
COc1cc(-c2cccc(-c3cccc(NC(=O)c4cn(C)c(=O)n(C)c4=O)c3C)c2Cl)cc(F)c1CN(C)C1CCOCC1 [Example 2.069]	< 10 nM

SMILES	IC50
COc1cc(-c2cccc(-c3cccc(NC(=O)c4cn(C)c(=O)n(C)c4=O)c3Cl)c2Cl)cc(F)c1CN[C@@H]1COCC[C@H]1O [Example 2.070]	< 10 nM
COc1cc(-c2cccc(-c3cccc(NC(=O)c4cn(C)c(=O)n(C)c4=O)c3Cl)c2Cl)cc(F)c1CN[C@H]1COCC[C@@H]1O [Example 2.071]	< 10 nM
COc1cc(-c2cccc(-c3cccc(NC(=O)c4cn(C)c(=O)n(C)c4=O)c3C)c2Cl)cc(F)c1CN(C)[C@@H]1CNC(=O)C1 [Example 2.072]	< 10 nM
COc1cc(-c2cccc(-c3cccc(NC(=O)c4cn(C)c(=O)n(C)c4=O)c3Cl)c2Cl)cc(F)c1CN[C@@H]1COC[C@@H]1O [Example 2.073]	< 10 nM
COc1cc(-c2cccc(-c3cccc(NC(=O)c4cn(C)c(=O)n(C)c4=O)c3Cl)c2Cl)cc(F)c1CN[C@H]1COC[C@H]1O [Example 2.074]	< 10 nM
COc1cc(-c2cccc(-c3cccc(NC(=O)c4cn(C)c(=O)n(C)c4=O)c3Cl)c2Cl)cc(F)c1CN[C@@H]1COC[C@H]1O [Example 2.075]	< 10 nM
COc1cc(-c2cccc(-c3cccc(NC(=O)c4cn(C)c(=O)n(C)c4=O)c3Cl)c2Cl)cc(F)c1CN[C@H]1COC[C@@H]1O [Example 2.076]	< 10 nM
COc1cc(-c2cccc(-c3cccc(NC(=O)c4cn(C)c(=O)n(C)c4=O)c3Cl)c2C)cc(F)c1CN[C@H]1CCOC[C@@H]1O [Example 2.077]	< 10 nM
COc1cc(-c2cccc(-c3cccc(NC(=O)c4cn(C)c(=O)n(C)c4=O)c3Cl)c2C)cc(F)c1CN[C@@H]1CCOC[C@H]1O [Example 2.078]	< 10 nM
COc1cc(-c2cccc(-c3cccc(NC(=O)c4cn(C)c(=O)n(C)c4=O)c3Cl)c2F)cc(F)c1CNC[C@@H]1CCC(=O)N1 [Example 2.079]	< 10 nM
COc1cc(-c2cccc(-c3cccc(NC(=O)c4cn(C)c(=O)n(C)c4=O)c3C)c2Cl)cc(F)c1CN[C@H]1CCCOC1 [Example 2.080]	< 10 nM
COc1cc(-c2cccc(-c3cccc(NC(=O)c4cn(C)c(=O)n(C)c4=O)c3Cl)c2Cl)cc(F)c1CN[C@H]1CNC(=O)C1 [Example 2.081]	< 10 nM
COc1cc(-c2cccc(-c3cccc(NC(=O)c4cn(C)c(=O)n(C)c4=O)c3Cl)c2Cl)cc(F)c1CN[C@H]1CCOC[C@@H]1O [Example 2.082]	< 10 nM
COc1cc(-c2cccc(-c3cccc(NC(=O)c4cn(C)c(=O)n(C)c4=O)c3C)c2Cl)cc(F)c1CNC1CCOCC1 [Example 2.083]	< 10 nM
COc1cc(-c2cccc(-c3cccc(NC(=O)c4cn(C)c(=O)n(C)c4=O)c3C)c2Cl)cc(F)c1CN[C@H]1CNC(=O)C1 [Example 2.084]	< 10 nM
COc1cc(-c2cccc(-c3cccc(NC(=O)c4cn(C)c(=O)n(C)c4=O)c3C)c2Cl)cc(F)c1CNC(C)(C)C(N)=O [Example 2.085]	10 to 1000 nM
COc1cc(-c2cccc(-c3cccc(NC(=O)c4cn(C)c(=O)n(C)c4=O)c3C)c2Cl)cc(F)c1CN[C@@H]1COCC[C@H]1O [Example 2.086]	< 10 nM
COc1cc(-c2cccc(-c3cccc(NC(=O)c4cn(C)c(=O)n(C)c4=O)c3C)c2Cl)cc(F)c1CN[C@H]1CCOC1 [Example 2.087]	< 10 nM
COc1cc(-c2cccc(-c3cccc(NC(=O)c4cn(C)c(=O)n(C)c4=O)c3C)c2Cl)cc(F)c1CN[C@H]1COCC[C@@H]1O [Example 2.088]	< 10 nM
